PubChem BioAssay (NCI)
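Method: 48-hour compound exposure of cells in 96-well plates, five concentrations, linear interpolation of endpoints. Definition used: TGI = concentration required for complete inhibition of growth.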

How the values were obtained:
Assay in all cases: NCI anticancer screen, dose series, 48 h
HCT-116 colon = system: HCT-116 colon
SF-268 CNS = system: SF-268 CNS
UACC-62 melanoma = system: UACC-62 melanoma
SNB-78 CNS = system: SNB-78 CNS
IGROV1 ovarian = system: IGROV1 ovarian
HOP-92 NSCLC = system: HOP-92 NSCLC
OVCAR-5 ovarian = system: OVCAR-5 ovarian
HL-60(TB) leukemia = system: HL-60(TB) leukemia
ACHN renal = system: ACHN renal
DMS 273 small cell lung = system: DMS 273 small cell lung
NCI-H522 lung = system: NCI-H522 lung
SN12C renal = system: SN12C renal
CCRF-CEM leukemia = system: CCRF-CEM leukemia
DLD-1 colon = system: DLD-1 colon
LOX IMVI melanoma = system: LOX IMVI melanoma
NCI-H23 lung = system: NCI-H23 lung
UACC-257 melanoma = system: UACC-257 melanoma
HT29 colon = system: HT29 colon
MOLT-4 leukemia = system: MOLT-4 leukemia
CAKI-1 renal = system: CAKI-1 renal
NCI-H226 lung = system: NCI-H226 lung
A549 NSCLC = system: A549 NSCLC
OVCAR-3 ovarian = system: OVCAR-3 ovarian
EKVX NSCLC = system: EKVX NSCLC
OVCAR-8 ovarian = system: OVCAR-8 ovarian
SW-620 colon = system: SW-620 colon
SK-MEL-2 melanoma = system: SK-MEL-2 melanoma
LXFL 529 NSCLC = system: LXFL 529 NSCLC
SK-MEL-5 melanoma = system: SK-MEL-5 melanoma
COLO 205 colon = system: COLO 205 colon
TK-10 renal = system: TK-10 renal
U251 CNS = system: U251 CNS
SK-OV-3 ovarian = system: SK-OV-3 ovarian
SNB-75 CNS = system: SNB-75 CNS
KM12 colon = system: KM12 colon
M14 melanoma = system: M14 melanoma
K-562 leukemia = system: K-562 leukemia
SF-539 CNS = system: SF-539 CNS
OVCAR-4 ovarian = system: OVCAR-4 ovarian
KM20L2 colon = system: KM20L2 colon
A498 renal = system: A498 renal
786-0 renal = system: 786-0 renal
XF 498 CNS = system: XF 498 CNS
HCT-15 colon = system: HCT-15 colon
RPMI-8226 leukemia = system: RPMI-8226 leukemia
M19-MEL melanoma = system: M19-MEL melanoma
HOP-62 NSCLC = system: HOP-62 NSCLC
MALME-3M melanoma = system: MALME-3M melanoma
SK-MEL-28 melanoma = system: SK-MEL-28 melanoma
NCI-H460 lung = system: NCI-H460 lung
SF-295 CNS = system: SF-295 CNS
UO-31 renal = system: UO-31 renal
SNB-19 CNS = system: SNB-19 CNS
DMS 114 small cell lung = system: DMS 114 small cell lung
HCC-2998 colon = system: HCC-2998 colon
MDA-MB-231 breast = system: MDA-MB-231 breast
NCI/ADR-RES ovarian = system: NCI/ADR-RES ovarian
MDA-N = system: MDA-N
DU-145 prostate = system: DU-145 prostate
SR leukemia = system: SR leukemia
T-47D breast = system: T-47D breast
BT-549 breast = system: BT-549 breast
MCF7 breast = system: MCF7 breast
MDA-MB-435 = system: MDA-MB-435
PC-3 prostate = system: PC-3 prostate
HS 578T breast = system: HS 578T breast
RXF 393 renal = system: RXF 393 renal

Nc1ccc(C(=O)NN2C(=O)C(Cl)C2c2ccc(O)cc2)cc1 (stereo unspecified) was tested, and the TGI (HCT-116 colon) was 44 µM, the TGI (SF-268 CNS) was 27 µM and the TGI (UACC-62 melanoma) was 29.1 µM. For the same compound, the TGI (SNB-78 CNS) was 44.6 µM, the TGI (IGROV1 ovarian) was 32.9 µM and the TGI (HOP-92 NSCLC) was 41.8 µM. For the same compound, the TGI (OVCAR-5 ovarian) was 46.6 µM, the TGI (HL-60(TB) leukemia) was 33.7 µM and the TGI (ACHN renal) was > 100 µM. For the same compound, the TGI (DMS 273 small cell lung) was 35.1 µM, the TGI (NCI-H522 lung) was 24.4 µM and the TGI (SN12C renal) was 36.6 µM. The TGI (CCRF-CEM leukemia) was 33.8 µM, the TGI (DLD-1 colon) was 33.4 µM and the TGI (LOX IMVI melanoma) was 22.7 µM. The TGI (NCI-H23 lung) was 35.2 µM, the TGI (UACC-257 melanoma) was > 100 µM and the TGI (HT29 colon) was 45.1 µM. For the same compound, the TGI (MOLT-4 leukemia) was 37.8 µM, the TGI (CAKI-1 renal) was 51.3 µM and the TGI (NCI-H226 lung) was 57.3 µM. The TGI (A549 NSCLC) was > 100 µM, the TGI (OVCAR-3 ovarian) was 29.2 µM and the TGI (EKVX NSCLC) was 36.1 µM. For the same compound, the TGI (OVCAR-8 ovarian) was 68.8 µM, the TGI (SW-620 colon) was 44.7 µM and the TGI (SK-MEL-2 melanoma) was 31.4 µM. For the same compound, the TGI (LXFL 529 NSCLC) was 31.7 µM, the TGI (SK-MEL-5 melanoma) was 31 µM and the TGI (COLO 205 colon) was 33.4 µM. For the same compound, the TGI (TK-10 renal) was > 100 µM, the TGI (U251 CNS) was 29.6 µM and the TGI (SK-OV-3 ovarian) was 46.1 µM. It also gave a TGI (SNB-75 CNS) of 70.4 µM, a TGI (KM12 colon) of 47.2 µM and a TGI (M14 melanoma) of 31.4 µM. It also gave a TGI (K-562 leukemia) of 49.5 µM, a TGI (SF-539 CNS) of 34.3 µM and a TGI (OVCAR-4 ovarian) of 41.4 µM. It also gave a TGI (KM20L2 colon) of 41.9 µM, a TGI (A498 renal) of 56.5 µM and a TGI (786-0 renal) of 31.3 µM. The TGI (XF 498 CNS) was 27.8 µM, the TGI (HCT-15 colon) was 50.1 µM and the TGI (RPMI-8226 leukemia) was > 100 µM. It also gave a TGI (M19-MEL melanoma) of 38.8 µM, a TGI (HOP-62 NSCLC) of 38.4 µM and a TGI (MALME-3M melanoma) of 32.9 µM. The TGI (SK-MEL-28 melanoma) was 40.7 µM, the TGI (NCI-H460 lung) was 54.8 µM and the TGI (SF-295 CNS) was > 100 µM. The TGI (UO-31 renal) was 57.9 µM, the TGI (SNB-19 CNS) was 31.4 µM and the TGI (DMS 114 small cell lung) was 25.7 µM.
With O=C1Nc2ccccc2C1(O)Cc1ccccn1 (stereo unspecified) the TGI (HCC-2998 colon) was > 100 µM, the TGI (HCT-116 colon) was > 100 µM and the TGI (SF-268 CNS) was > 100 µM. The TGI (MDA-MB-231 breast) was > 100 µM, the TGI (NCI/ADR-RES ovarian) was > 100 µM and the TGI (UACC-62 melanoma) was > 100 µM. The TGI (MDA-N) was > 100 µM, the TGI (IGROV1 ovarian) was > 100 µM and the TGI (HOP-92 NSCLC) was > 100 µM. For the same compound, the TGI (OVCAR-5 ovarian) was > 100 µM, the TGI (DU-145 prostate) was > 100 µM and the TGI (SR leukemia) was > 100 µM. The TGI (HL-60(TB) leukemia) was > 100 µM, the TGI (ACHN renal) was > 100 µM and the TGI (T-47D breast) was > 100 µM. The TGI (NCI-H522 lung) was > 100 µM, the TGI (BT-549 breast) was > 100 µM and the TGI (SN12C renal) was > 100 µM. For the same compound, the TGI (CCRF-CEM leukemia) was > 100 µM, the TGI (LOX IMVI melanoma) was > 100 µM and the TGI (NCI-H23 lung) was > 100 µM. The TGI (UACC-257 melanoma) was > 100 µM, the TGI (HT29 colon) was > 100 µM and the TGI (CAKI-1 renal) was > 100 µM. For the same compound, the TGI (NCI-H226 lung) was > 100 µM, the TGI (A549 NSCLC) was > 100 µM and the TGI (OVCAR-3 ovarian) was > 100 µM. For the same compound, the TGI (EKVX NSCLC) was > 100 µM, the TGI (OVCAR-8 ovarian) was > 100 µM and the TGI (SW-620 colon) was > 100 µM. For the same compound, the TGI (SK-MEL-2 melanoma) was > 100 µM, the TGI (SK-MEL-5 melanoma) was > 100 µM and the TGI (COLO 205 colon) was > 100 µM. For the same compound, the TGI (TK-10 renal) was > 100 µM, the TGI (U251 CNS) was > 100 µM and the TGI (SK-OV-3 ovarian) was > 100 µM. The TGI (MCF7 breast) was > 100 µM, the TGI (MDA-MB-435) was > 100 µM and the TGI (SNB-75 CNS) was > 100 µM. The TGI (KM12 colon) was > 100 µM, the TGI (M14 melanoma) was > 100 µM and the TGI (K-562 leukemia) was > 100 µM. The TGI (OVCAR-4 ovarian) was > 100 µM, the TGI (A498 renal) was > 100 µM and the TGI (786-0 renal) was > 100 µM. The TGI (HCT-15 colon) was > 100 µM, the TGI (PC-3 prostate) was > 100 µM and the TGI (HS 578T breast) was > 100 µM. For the same compound, the TGI (RPMI-8226 leukemia) was > 100 µM, the TGI (HOP-62 NSCLC) was > 100 µM and the TGI (MALME-3M melanoma) was > 100 µM. The TGI (SK-MEL-28 melanoma) was > 100 µM, the TGI (RXF 393 renal) was > 100 µM and the TGI (NCI-H460 lung) was > 100 µM. The TGI (SF-295 CNS) was > 100 µM, the TGI (UO-31 renal) was > 100 µM and the TGI (SNB-19 CNS) was > 100 µM.
